The text below walks through data of paper PMC7053711, “A G protein–coupled receptor mediates neuropeptide-induced oocyte maturation in the jellyfish Clytia” (PLoS Biology, 2020).

Structures are written as SMILES. Peptide text beside a SMILES is read from it.

The subject of assay [1] is Clytia MIHR. Description: Dose–response curves of Clytia MIHR, luminescence (CHO-K1 cells, Gα-16, GFP-apoaequorin). The arrangement: key to Span (best-fit value) / Bottom (best-fit value): % activation, normalized to fitted upper plateau (100%). The settings on record: for EC50: four-parameter fit, variable slope, triplicate; for HillSlope / LogEC50: best-fit value; for Bottom / Span / Top: best-fit value (luminescence). The class given is cell-based, Clytia hemisphaerica. On the procedure: The Clytia MIH amidated peptides are produced from two precursor genes Che-pp4 (generating multiple copies of WPRAamide, WPRYamide, and WPRPamide) and Che-pp1 (multiple copies of WPRPamide and RPRGamide).
Cell culture GPCR ligand response assays were performed as described. Briefly, CHO-K1 cells were cultured in Ham’s F12 Nut Mix medium (Thermo Fisher Scientific) with 10% foetal bovine serum. Cells were seeded in 96-well plates at approximately 10,000 cells/well and transfected the following day with pcDNA3.1(+) plasmids encoding each of the 16 candidate Clytia GPCRs (S2 Text), the promiscuous Gα-16 protein [65], and a reporter construct GFP-apoaequorin [66] (60 ng each) using the transfection reagent TurboFect (Thermo Fisher Scientific). After 2 days of expression, the medium was removed and replaced with Hank’s balanced salt solution (HBSS) supplemented with 1.8 mM Ca2+, 10 mM glucose, and […] coelenterazine h (Promega, Madison, WI). After incubation at 37 °C for 2 hours, cells were tested by adding synthetic peptides (GenScript) in HBSS supplemented with 1.8 mM Ca2^+ and 10 mM glucose. A list of all synthetic peptides used is provided in S2 Table. Luminescence was recorded for 45 seconds in a plate reader (BioTek Synergy Mx or Synergy H4; BioTek, Winooski, VT). Data were integrated over the 45-second measurement period and recorded as technical triplicates in each case. Data were normalized using the response of Platynereis FLamide receptor to 1 μM AKYFL-NH2 [28]. Dose–response curves were obtained using concentrations between 0.01 nM and 100 μM for each peptide. Data for dose–response curves were recorded in triplicate for each concentration and the experiment was repeated independently 3 times. Dose–response curves were fitted with a four-parameter curve using Prism 6 (GraphPad, La Jolla, CA) and were normalized to the calculated upper plateau values (100% activation).
Supplementary file pbio.3000614.s012.xlsx: S2 Data Numerical data corresponding to Fig 1C. The first three tabs show statistical values obtained using Prism 6 software (GraphPad, La Jolla, CA) from the raw luminescence values for 3 independent dose–response experiments. The raw luminescence values are shown, as well as the values normalized with respect to the maximum. […] MIH, maturation-inducing hormone. (XLSX) Click here for additional data file.

Assay [2] has as its system fully grown oocytes isolated from MIHR mutant (n5-23) gonads. Description: Oocyte maturation assay, MIHR mutant isolated oocytes (GVBD). The class given is cell-based, Clytia hemisphaerica. The settings on record: for Oocyte maturation (number) / Percentage of Oocytes maturing: 0,1uM WPRPa, MIH R K.O. The source says: Fig 4 Oocyte maturation failure in MIHR mutant medusae. Oocyte maturation assays performed using isolated gonads (A, B) or isolated oocytes (C) from MIHR mutant jellyfish compared to WT. In A and C, bar heights represent mean percentages of 3 independent experiments and error bars show standard deviations. Total gonad or oocyte numbers for each treatment are indicated in gray. (A) Spawning response of isolated gonads from WT and n5-23 female medusae. Three treatments were compared as indicated above each panel: Light: light stimulation after incubation in the dark; MIH: treatment of light-maintained gonads with 100 nM WPRPamide; cAMP: treatment of light-maintained gonads with 4 mM Br-cAMP. […] Full datasets from three independent experiments are available in S3 Data. (B) Light microscope images illustrating gonads from an equivalent experiment performed with n5-13 female MIHR mutant medusae 120 minutes after the indicated treatments. Scale bar: 500 μm. […] Full datasets from 3 independent experiments are available in S3 Data. Br-cAMP, bromoadenosine 3′,5′-cyclic monophosphate; cAMP, cyclic adenosine monophosphate; KO, knockout; MIH, maturation-inducing hormone; MIHR, MIH receptor; WT, wild-type.
Fully grown oocytes were isolated manually from dissected gonads of wild-type and MIHR KO mutant jellyfish prepared as above. Maturation assays were performed in wells of 96-well plates or small plastic petri dishes lined with 2% agarose in MFSW. Spontaneous maturation occurs at a low frequency in control oocytes. To test MIH-induced maturation, 10 μL WPRPamide from 1 μM solution in MFSW was added to a final concentration of 100 nM. In some experiments, Br-cAMP from a 20 mM stock in H2O was used at a final concentration of 4 mM. GVBD was scored at 30 minutes, every 5 minutes, depending on experiments.
Supplementary file pbio.3000614.s013.xlsx: S3 Data Numerical data corresponding to Fig 4A and 4C. The first tab collects all the raw data from 3 independent gonad spawning assays. Information corresponding to the Fisher exact tests is also shown. […] The means and standard deviations were used to prepare the graph in Fig 4C. Information corresponding to the Fisher exact tests is also shown. (XLSX) Click here for additional data file.

[3] abbreviates: log(agonist) vs. response, variable slope (four parameters), fit of third dataset.
Setting [4] is: WPRPa, pooled n=46, Fisher exact test vs WT significant at p < .01.

Broadly, the EC50 is the concentration giving half of the maximal effect. Consider `N=C(N)NCCC[C@H](NC(=O)[C@@H]1CCCN1C(=O)[C@@H](N)Cc1c[nH]c2ccccc12)C(=O)N1CCC[C@H]1C(N)=O` [WPRPa] (H-WPRP-NH2; N-terminus assumed), for which the EC50 in assay [1] (dataset/experiment 1) was 220 nM. The EC50 in assay [1] (dataset/experiment 2) was found to be 928 nM. For the same compound, in assay [1] (first dataset), the HillSlope is given as 1.128, the LogEC50 is recorded as -6.658, the Bottom was 935 and the Span worked out at 46105. The Top in assay [1] (first dataset) came out at 47040. Besides, in assay [1] (setting [3]), the “Bottom (best-fit value)” value came out at 10.51, the “HillSlope (best-fit value)” value came out at 1.078, the “LogEC50 (best-fit value)” value is recorded as -6.286 and the “Span (best-fit value)” value is given as 89.49. For the same compound, in assay [1] (second dataset), the HillSlope is on record as 0.9926, the LogEC50 is recorded as -6.033, the Bottom came out at 1493 and the Span amounted to 22106. For the same compound, the Top in assay [1] (second dataset) is on record as 23599. Also, in assay [2] (replicate 1, total 14), the “Oocyte maturation (number)” value came out at 1 and the “Percentage of Oocytes maturing” value worked out at 7.14. Further, in assay [2] (replicate 2, total 11), the “Oocyte maturation (number)” value turned out to be 0 and the “Percentage of Oocytes maturing” value is on record as 0.00. Moreover, in assay [2] (replicate 3, total 21.00), the “Oocyte maturation (number)” value came to 2 and the “Percentage of Oocytes maturing” value was determined as 9.52. In assay [2] (setting [4]), the “Maturing oocytes, MIHR KO YES” value came to 3 and the “Non-maturing oocytes, MIHR KO NO” value stood at 43.
